Laboratory results from patent US20250360134A1, “6-6 OR 5-6 FUSED BICYCLIC COMPOUNDS COMPRISING A PYRI(MI)DINE RING USEFUL IN THE|TREATMENT OF INFECTIOUS DISEASES” (INSTITUT NATIONAL DE LA SANTE ET DE LA RECHERCHE MEDICALE …, priority 2020, published 2025).
Structures can show the parent of a compound that is named as a salt. Where two headings read alike, the source gives them in different places.

Tests used:
[1] = Cytotoxicity evaluation, MTT; format: cell-based, human; conditions: HepG2 cells (hepatocarcinoma-derived, ATCC HB-8065); human HepG2 cells, 72 hours, MTT
Protocol: The aim of this assay was to evaluate the impact of metabolic activation of the tested compounds on cell viability.
A cytotoxicity evaluation was performed using the method reported in Emami S A et al., Iran J Basic Med Sci 2012; 15:807-11 to determine the cytotoxic concentrations 50% (CC50) and using doxorubicin as a cytotoxic reference compound. These assays were performed in human HepG2 cells. HepG2 cells were purchased from ATCC (ref HB-8065). These cells are a commonly used human hepatocarcinoma-derived cell line that has characteristics similar to those of primary hepatocytes. These cells express many hepatocyte-specific metabolic enzymes, thus enabling the cytotoxicity of tested product metabolites to be evaluated. Briefly, cells in 100 μl of complete RPMI medium [RPMI supplemented with 10% FCS, 1% 1-glutamine (200 mM), penicillin (100 U/ml), and streptomycin (100 μg/ml)] were inoculated into each well of 96-well plates and incubated at 37° C. in a humidified chamber in 6% CO2. After 24 hours, 100 μl of medium with test compound at various concentrations dissolved in DMSO (final concentration less than 0.5% v/v) was added, and the plates were incubated for 72 hours at 37° C. Duplicate assays were performed for each sample. Each well was microscopically examined for precipitate formation before the medium was aspirated from the wells. After aspiration, 100 μl of MTT solution (0.5 mg/ml in medium without FCS) were then added to each well. Cells were incubated for 2 hours at 37° C. MTT solution was removed, and DMSO (100 μl) was added to dissolve the resulting blue formazan crystals. Plates were shaken vigorously (300 rpm) for 5 min. The absorbance was measured at 570 nm with 630 nm as reference wavelength in a BIO-TEK ELx808 Absorbance Microplate Reader. DMSO was used as blank and doxorubicin (Sigma-Aldrich) as positive control. Cell viability was calculated as percentage of control (cells incubated without compound).

[2] = system: T. brucei brucei AnTat 1.9; assay: In vitro antitrypanosomal activity, Alamar Blue assay; format: cell-based, Trypanosoma brucei brucei; conditions: Trypanosoma brucei, read-out: IC50 T. brucei brucei
Protocol: The effects of the tested compounds on the growth of T. brucei brucei were assessed using an Alamar Blue® assay described in B. Raz et al., Acta Trop. 1997, 68, 139. T. brucei brucei AnTat 1.9 (IMTA, Antwerpen, Belgium) was cultured in MEM with Earle's salts, supplemented according to the protocol disclosed in T. Baltz et al., EMBO J. 1985, 4, 1273, with the following modifications: 0.5 mM mercaptoethanol (Sigma-Aldrich), 1.5 mM 1-cysteine (Sigma-Aldrich), 0.05 mM bathocuproine sulfate (Sigma-Aldrich), and 20% heat-inactivated horse serum (Gibco, France) at 37° C. and 5% CO2. Samples were incubated at an average density of 2000 parasites/well in sterile 96-well plates (Fisher, France) with various concentrations of compounds dissolved in 0.9% NaCl. All doses were tested in duplicate. Appropriate controls treated with solvents 0.9% NaCl or DMSO or with suramin, pentamidine, eflornithine, and fexinidazole (reference drugs purchased from Sigma-Aldrich and Fluorochem, UK) were added to each set of experiments. After a 69-hour incubation at 37° C., 10 μl of the viability marker Alamar Blue (Fisher) was added to each well, and the plates were incubated for 5 hour. The plates were read in a PerkinElmer ENSPIRE (Germany) microplate reader using an excitation wavelength of 530 nm and an emission wavelength of 590 nm. The IC50 was defined as the concentration of drug necessary to inhibit by 50% the activity of T. brucei brucei compared to the control. IC50 values were calculated using a non-linear regression analysis of dose-response curves performed using GraphPad Prism software (USA). IC50 values were calculated from three independent experiments.

[3] = system: Plasmodium telomeric sequence FPf8T; assay: FRET-melting, FPf8T; conditions: K+ condition, 2 μM compound, 0.2 μM oligonucleotide
[4] = system: human telomeric sequence F21T; assay: FRET-melting, F21T; conditions: K+ condition, 2 μM compound, 0.2 μM oligonucleotide
Plasmodium falciparum W2 = assay: In vitro antiplasmodial activity, SYBR Green I, strain W2; conditions: Plasmodium falciparum, W2, 48 h, read-out: IC50 Plasmodium falciparum W2, chloroquine-resistant strain W2, 48-hour incubation
Protocol: (§1) The in vitro antiplasmodial activities were tested over concentrations ranging from 39 to 40 μm against culture-adapted Plasmodium falciparum: reference strains 3D7 and W2. […] The parasites were cultivated in RPMI medium (Sigma-Aldrich, Lyon, France) supplemented with 0.5% Albumax I (Life Technologies Corporation, Paisley, UK), hypoxanthine (Sigma-Aldrich), and gentamicin (Sigma-Aldrich) with human erythrocytes and were incubated at 37° C. in a candle jar, as described in Desjardins R E et al., Antimicrob Agents Chemother, 1979; 16:710-18.
(§2) The P. falciparum drug susceptibility test was carried out in 96-well flat bottom sterile plates in a final volume of 250 μL. After a 48-hour incubation with the drugs, quantities of DNA in treated and control cultures of parasites in human erythrocytes were quantified using the SYBR Green I (Sigma-Aldrich) fluorescence-based method as described in Bennett T N et al, Antimicrob Agents Chemother, 2004; 48:1807-10. Briefly, after incubation, plates were frozen at −20° C. until use. Plates were then thawed for 2 hours at room temperature, and 100 μL of each homogenized culture was transferred to a well of a 96-well flat bottom sterile black plate (Nunc, Inc., Rochester, NY) that contained 100 μL of the SYBR Green I lysis buffer (2×SYBR Green, 20 mM Tris base pH 7.5, 5 mM EDTA, 0.008% w/v saponin, 0.08% w/v Triton X-100). […] Plates were incubated for 1 hour at room temperature and then read on a fluorescence plate reader (Tecan, Grödig, Austria) using excitation and emission wavelengths of 485 and 535 nm, respectively. Concentrations inhibiting 50% of the parasite's growth (half maximal inhibitory concentration or IC50 values) were then calculated from the obtained experimental results by non-linear regression analysis of data from dose-response curves, using TableCurve 2D version 5.0 software (Systat Software, San Jose, CA). IC50 values are reported as means calculated from three independent experiments, as described in H. Kaddouri et al., Antimicrob.

[5] = system: Plasmodium telomeric sequence FPf1T; assay: FRET-melting, FPf1T; conditions: K+ condition, 2 μM compound, 0.2 μM oligonucleotide
[6] = system: Plasmodium falciparum 3D7; assay: In vitro antiplasmodial activity, SYBR Green I, strain 3D7; conditions: Plasmodium falciparum, 3D7, 48 h, read-out: IC50 Plasmodium falciparum 3D7, chloroquine-sensitive strain 3D7, 48-hour incubation
Protocol: as §1, §2

[7] = system: human duplex sequence FdxT; assay: FRET-melting, FdxT; conditions: duplex control, K+ condition, 2 μM compound, 0.2 μM oligonucleotide
[8] = system: Trypanosoma 9 and 11 chromosomic sequence FTrypBT; assay: FRET-melting, FTrypBT; conditions: K+ condition, 2 μM compound, 0.2 μM oligonucleotide
[9] = 69-hour incubation, Alamar Blue

SMILES | IC50 at 72 h [1] | IC50 ([2]; 69 h) | FRET-melting values in K+ conditions at 2 μM ΔTm FPf8T [3] | FRET-melting values in K+ conditions at 2 μM ΔTm F21T [4] | IC50 (Plasmodium falciparum W2) | FRET-melting values in K+ conditions at 2 μM ΔTm FPf1T [5] | IC50 [6] | FRET-melting values in K+ conditions at 2 μM ΔTm FdxT [7] | FRET-melting values in K+ conditions at 2 μM ΔTm FtryBT [8] | IC50 [2, 9]
CN1CCN(CCCNCc2ccc(-c3nc(-c4ccc(CNCCCN5CCN(C)CC5)cc4)c4ccn(C)c4n3)cc2)CC1 [Compound 9B, 2,4-bis{4-[(3-(4-methylpiperazin-1-yl)propyl)aminomethyl]phenyl}-7-methyl-7H-pyrrolo[2,3-d]pyrimidine oxalate] | 39500 nM | 1000 ± 100 nM | 10.1 °C | 10.4 °C | 130 ± 50 nM | 10.1 °C | 17800 ± 3490 nM | 0.0 °C | 8.4 °C | 
CN(C)CCCNCc1ccc(-c2nc(Cl)nc3[nH]ccc23)cc1 [Compound 15B, 2-Chloro-4-{4-[(3-dimethylaminopropyl)aminomethyl]phenyl}-7H-pyrrolo[2,3-d]pyrimidine oxalate] | 23700 nM | 510 ± 70 nM |  | 0.3 °C | 15200 ± 2080 nM |  | 10300 ± 220 nM | 0.1 °C |  | 
CN1CCN(CCCNCc2ccc(-c3nc(-c4ccc(CNCCCN5CCN(C)CC5)cc4)c4sccc4n3)cc2)CC1 [Compound 30B, 2,4-Bis{4-[(3-(4-methylpiperazin-1-yl)propyl)aminomethyl]phenyl}thieno[3,2-d]pyrimidine oxalate] | 18900 nM | 750 ± 100 nM | 15.2 °C | 14.5 °C | 30 nM | 14.9 °C | 10800 ± 2950 nM | 0.5 °C | 12.8 °C | 
CN(C)CCCNCc1ccc(-c2nc(Cl)nc3c2ccn3-c2ccccc2)cc1 [Compound 17B, 2-Chloro-4-{4-[(3-dimethylaminopropyl)aminomethyl]phenyl}-7-phenyl-7H-pyrrolo[2,3-d]pyrimidine oxalate] | 2870 nM | 20 nM |  |  | 290 ± 40 nM |  | 1010 ± 410 nM | −0.2 °C |  | 
CN(C)CCCNCc1ccc(-c2nc(Cl)nc3c2ccn3-c2ccccc2)s1 [Compound 19B, 2-Chloro-4-{5-[(3-dimethylaminopropyl)aminomethyl]thien-2-yl}-7-phenyl-7H-pyrrolo[2,3-d]pyrimidine oxalate] | 1880 nM | 50 ± 10 nM |  | 6.2 °C | 4560 ± 560 nM |  | 1970 ± 360 nM | −1.8 °C |  | 
CN(C)CCCNCc1ccc(-c2nc3c(c(-c4ccc(CNCCCN(C)C)cc4)n2)CCNC3)cc1 [Compound 25B, 2,4-Bis{4-[(3-dimethylaminopropyl)aminomethyl]phenyl})-5,6,7,8-dihydropyrido[3,4-d]pyrimidine oxalate] |  |  | 11.1 °C | 12.3 °C | 2230 ± 230 nM | 10.7 °C | 790 ± 120 nM | −0.9 °C | 8.0 °C | 2430 ± 100 nM
CN(C)CCCNCc1ccc(-c2nc(NCCCN(C)C)nc3sccc23)cc1 [Compound 28B, 2-(3-Dimethylaminopropylamino)-4-{4-[(4-dimethylaminopropyl)aminomethyl]phenyl}thieno[2,3-d]pyrimidine oxalate] | 35200 nM |  |  | 2.41 °C | 11500 ± 2470 nM |  | 30 nM | −0.77 °C |  | 1100 ± 260 nM
CN1CCN(CCCNCc2ccc(-c3nc(-c4ccc(CNCCCN5CCN(C)CC5)cc4)c4ccn(-c5ccccc5)c4n3)cc2)CC1 [Compound 2B, 2,4-bis{4-[(3-(4-methylpiperazin-1-yl)propyl)aminomethyl]phenyl}-7-phenyl-7H-pyrrolo[2,3-d]pyrimidine oxalate] | 1080 nM | 880 ± 70 nM | 20.0 °C | 19.6 °C | 1010 ± 160 nM | 19.1 °C |  | 0.7 °C | 17.3 °C | 
COC(=O)C(CCCCNCc1ccc(-c2nc(-c3ccc(CNCCCCC(NC(=O)OC(C)(C)C)C(=O)OC)cc3)c3ccn(C)c3n2)cc1)NC(=O)OC(C)(C)C (centres unmarked) [Compound 10B, 2,4-Bis{4-[(5-(tert-butoxycarbonylamino)-5-methoxycarbonyl)pentyl)aminomethyl]phenyl}-7-methyl-7H-pyrrolo[2,3-d]pyrimidine oxalate] |  |  | 11.0 °C | 11.8 °C | 4360 ± 1700 nM | 10.1 °C | 610 ± 240 nM | −1.0 °C | 8.9 °C | 7050 ± 660 nM
CN1CCN(CCCNCc2ccc(-c3nc(Cl)nc4[nH]ccc34)cc2)CC1 [Compound 16B, 2-Chloro-4-{4-[(3-(4-methylpiperazin-1-yl)propyl)aminomethyl]phenyl}-7H-pyrrolo[2,3-d]pyrimidine oxalate] | 63500 nM | 1340 ± 250 nM |  | 0.8 °C | 25900 ± 4630 nM |  | 10500 ± 230 nM | 0.1 °C |  | 
